Measured values: PubChem BioAssay (NCI)
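Cells were grown in 96-well plates and exposed to each compound for 48 hours at five concentrations; endpoints were interpolated linearly between bracketing concentrations, or set to the highest concentration if not reached. TGI marks complete inhibition of growth.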 *1 amine or outer side, *2 acyl side, *3 side chain or, on linkers, in order; H or OH if unused. Where a SMILES comes first, the peptide text is derived from it. Bridges are numbered along the chain shown (N, C = ends). Roman numbers before positions name the chains, in order. [ ]: non-standard residue; d: D form. Actinocin(9to1) = Cc1c2oc3c(C)ccc(C(=O)[*:1])c3nc-2c(C(=O)[*:2])c(N)c1=O; X48 = O=C1CC(C(=O)[*:2])N([*:1])C1; NMeV = CN[CH](C(=O)O)C(C)C; Sar = CNCC(=O)O

How the values were obtained:
Experiment in all cases: inhibition of tumour cell growth, NCI panel, 48 h
HS 578T breast = system: HS 578T breast
NCI-H460 lung = system: NCI-H460 lung
KM12 colon = system: KM12 colon
SNB-19 CNS = system: SNB-19 CNS
RPMI-8226 leukemia = system: RPMI-8226 leukemia
SK-MEL-28 melanoma = system: SK-MEL-28 melanoma
EKVX NSCLC = system: EKVX NSCLC
TK-10 renal = system: TK-10 renal
NCI-H23 lung = system: NCI-H23 lung
SF-268 CNS = system: SF-268 CNS
SNB-75 CNS = system: SNB-75 CNS
HL-60(TB) leukemia = system: HL-60(TB) leukemia
CCRF-CEM leukemia = system: CCRF-CEM leukemia
SF-295 CNS = system: SF-295 CNS
U251 CNS = system: U251 CNS
NCI/ADR-RES ovarian = system: NCI/ADR-RES ovarian
SW-620 colon = system: SW-620 colon
OVCAR-5 ovarian = system: OVCAR-5 ovarian
DU-145 prostate = system: DU-145 prostate

Compound	TGI (HS 578T breast) [µM]	TGI (NCI-H460 lung) [µM]	TGI (KM12 colon) [µM]	TGI (SNB-19 CNS) [µM]	TGI (RPMI-8226 leukemia) [µM]	TGI (SK-MEL-28 melanoma) [µM]	TGI (EKVX NSCLC) [µM]	TGI (TK-10 renal) [µM]	TGI (NCI-H23 lung) [µM]	TGI (SF-268 CNS) [µM]	TGI (SNB-75 CNS) [µM]	TGI (HL-60(TB) leukemia) [µM]	TGI (CCRF-CEM leukemia) [µM]	TGI (SF-295 CNS) [µM]	TGI (U251 CNS) [µM]	TGI (NCI/ADR-RES ovarian) [µM]	TGI (SW-620 colon) [µM]	TGI (OVCAR-5 ovarian) [µM]	TGI (DU-145 prostate) [µM]
CC1(C)C(O)C[C@]23CCC[C@](C)(C[C@@H](O)C12)C3 (stereo partly drawn)	> 100	> 100	> 100	> 100	> 100	> 100	> 100	> 100	> 100	> 100	> 100	> 100	> 100	> 100	> 100	> 100	> 100	> 100	–
COC(=O)C[C@@H]1C(C)(C)[C@@H]2O[C@@]34C[C@@H]2C(=O)[C@]1(C)[C@H]3CC[C@@]1(C)[C@H](c2ccoc2)OC(=O)C[C@]14O	–	> 100	> 100	> 100	> 100	> 100	> 100	> 100	> 100	> 100	> 100	> 100	> 100	> 100	> 100	> 100	> 100	> 100	> 100
O=C1OCC2(CO1)CC1C=CC2C1 (stereo not drawn)	> 100	> 100	> 100	> 100	> 100	> 100	> 100	> 100	> 100	> 100	–	> 100	–	> 100	> 100	> 100	> 100	> 100	> 100
CCOC(=O)C(Cc1ccccc1)NC(=O)c1ccc(N=NN(C)C)cc1 (stereo not drawn)	–	> 100	> 100	> 100	> 100	> 100	> 100	> 100	> 100	> 100	> 100	> 100	> 100	> 100	> 100	–	> 100	> 100	–
COc1ccc(CNc2nc3cc(C(F)(F)F)ccc3nc2C(=O)O)cc1OC	–	> 100	> 100	> 100	94.6	> 100	> 100	–	> 100	–	> 100	–	92.9	> 100	73.5	> 100	> 100	> 100	> 100
O=C(C#CP(=O)(O)c1ccccc1)c1ccccc1	> 100	> 100	> 100	> 100	–	> 100	> 100	> 100	> 100	> 100	> 100	–	–	> 100	> 100	> 100	> 100	> 100	> 100
COc1cccc2c(NNc3ccccc3)c3ccc([N+](=O)[O-])cc3nc12	–	> 100	46.1	> 100	> 100	> 100	> 100	> 100	> 100	> 100	–	–	> 100	> 100	> 100	> 100	> 100	> 100	> 100
COc1ccc(-c2c(C#N)c(-c3ccc(C)cc3)n(NS(=O)(=O)c3ccccc3)c(=O)c2C#N)cc1	> 100	> 100	> 100	> 100	39.4	> 100	> 100	> 100	–	> 100	> 100	52.3	> 100	> 100	> 100	> 100	> 100	> 100	–
C=CCNC(=S)N1c2ccccc2NC(=O)CC1C (stereo not drawn)	–	> 100	> 100	> 100	> 100	> 100	> 100	> 100	> 100	> 100	> 100	> 100	> 100	> 100	> 100	–	> 100	> 100	–
OCC1NCC(O)C(O)C1O (stereo not drawn)	> 100	> 100	> 100	> 100	> 100	> 100	> 100	> 100	> 100	> 100	> 100	> 100	> 100	–	> 100	–	> 100	> 100	> 100
COC1C=CC(C(=O)[N+]2=Cc3[nH]c4ccccc4c3CC2)O1 (stereo not drawn)	–	> 100	> 100	> 100	> 100	> 100	> 100	> 100	> 100	> 100	> 100	> 100	76.6	> 100	> 100	–	> 100	> 100	–
Cc1c2oc3c(C)ccc(C(=O)NC4C(=O)NC(C(C)C)C(=O)N5CC(=O)CC5C(=O)N(C)CC(=O)N(C)C(C(C)C)C(=O)OC4C)c3nc-2c(C(=O)NC2C(=O)NC(C(C)C)C(=O)N3CC(=O)CC3C(=O)N(C)CC(=O)N(C)C(C(C)C)C(=O)OC2C)c(N)c1=O (stereo not drawn) (I: TV[X48][Sar][NMeV] / II: TV[X48][Sar][NMeV]; ester I:1-I:C, II:1-II:C; linker I:N-II:N via Actinocin(9to1); configuration not given here)	–	> 1	–	> 1	> 1	> 1	> 1	> 1	> 1	–	–	> 1	> 1	> 1	> 1	> 1	> 1	> 1	> 1
O=C(NC1CCC(=O)N1C(=O)OCc1ccccc1)OCc1ccccc1 (stereo not drawn)	> 100	> 100	> 100	> 100	> 100	> 100	–	> 100	> 100	> 100	> 100	–	–	> 100	> 100	> 100	> 100	> 100	> 100
